Laboratory results reported in ChEMBL document CHEMBL6109078, “Pyrylium derivatives as outer membrane permeabilizers against MDR gram-negative bacteria via multi-target mode of action” (Eur J Med Chem, 2025).
The source made the active and inactive calls. The calls are words filed in the database; no cut-off is given here.

How the values were obtained:
Escherichia coli [1] = assay: Antibacterial activity against Escherichia coli ATCC 25922 assessed as inhibition of bacterial growth by CLSI protocol based method; type: functional
Escherichia coli [2] = assay: Antibacterial activity against ESBL positive Escherichia coli ATCC 35218 assessed as inhibition of bacterial growth by CLSI protocol based method; type: functional
Pseudomonas aeruginosa [3] = assay: Antibacterial activity Pseudomonas aeruginosa ATCC 27853 assessed as inhibition of bacterial growth by CLSI protocol based method; type: functional
Pseudomonas aeruginosa [4] = assay: Antibacterial activity Pseudomonas aeruginosa PAO1 assessed as inhibition of bacterial growth by CLSI protocol based method; type: functional
Acinetobacter baumannii [5] = assay: Antibacterial activity against multi-drug resistant Acinetobacter baumannii clinical isolate 5 assessed as inhibition of bacterial growth by CLSI protocol based method; type: functional
Acinetobacter baumannii [6] = assay: Antibacterial activity against multi-drug resistant Acinetobacter baumannii clinical isolate 2 assessed as inhibition of bacterial growth by CLSI protocol based method; type: functional
Acinetobacter baumannii [7] = assay: Antibacterial activity against multi-drug resistant Acinetobacter baumannii clinical isolate 4 assessed as inhibition of bacterial growth by CLSI protocol based method; type: functional
Acinetobacter baumannii [8] = assay: Antibacterial activity against multi-drug resistant Acinetobacter baumannii clinical isolate 14 assessed as inhibition of bacterial growth by CLSI protocol based method; type: functional
Acinetobacter baumannii [9] = assay: Antibacterial activity against multi-drug resistant Acinetobacter baumannii clinical isolate 1 assessed as inhibition of bacterial growth by CLSI protocol based method; type: functional
Acinetobacter baumannii [10] = assay: Synergistic antibacterial activity against Acinetobacter baumannii ATCC 19606 assessed as inhibition of bacterial growth by measuring polymyxin B MIC by checkerboard assay; type: functional
Acinetobacter baumannii [11] = assay: Synergistic antibacterial activity against multi-drug resistant Acinetobacter baumannii clinical isolate 5 assessed as inhibition of bacterial growth by measuring polymyxin B MIC by checkerboard assay; type: functional
Acinetobacter baumannii [12] = assay: Synergistic antibacterial activity against multi-drug resistant Acinetobacter baumannii clinical isolate 14 assessed as inhibition of bacterial growth by measuring polymyxin B MIC by checkerboard assay; type: functional
Acinetobacter baumannii [13] = assay: Synergistic antibacterial activity against multi-drug resistant Acinetobacter baumannii clinical isolate 1 assessed as inhibition of bacterial growth by measuring polymyxin B MIC by checkerboard assay; type: functional
Acinetobacter baumannii [14] = assay: Synergistic antibacterial activity against multi-drug resistant Acinetobacter baumannii clinical isolate 43 assessed as inhibition of bacterial growth by measuring polymyxin B MIC by checkerboard assay; type: functional
Escherichia coli [15] = assay: Synergistic antibacterial activity against multi-drug resistant Escherichia coli clinical isolate 1 assessed as inhibition of bacterial growth by measuring polymyxin B MIC by checkerboard assay; type: functional
Acinetobacter baumannii [16] = assay: Synergistic antibacterial activity against Acinetobacter baumannii ATCC 19606 assessed as inhibition of bacterial growth in presence of polymyxin B by checkerboard assay; type: functional
Acinetobacter baumannii [17] = assay: Synergistic antibacterial activity against multi-drug resistant Acinetobacter baumannii clinical isolate 14 assessed as inhibition of bacterial growth in presence of polymyxin B by checkerboard assay; type: functional
Acinetobacter baumannii [18] = assay: Synergistic antibacterial activity against multi-drug resistant Acinetobacter baumannii clinical isolate 1 assessed as inhibition of bacterial growth in presence of polymyxin B by checkerboard assay; type: functional
Acinetobacter baumannii [19] = assay: Synergistic antibacterial activity against multi-drug resistant Acinetobacter baumannii clinical isolate 43 assessed as inhibition of bacterial growth in presence of polymyxin B by checkerboard assay; type: functional
Escherichia coli [20] = assay: Synergistic antibacterial activity against Escherichia coli ATCC 35218 assessed as inhibition of bacterial growth in presence of polymyxin B by checkerboard assay; type: functional
Escherichia coli [21] = assay: Synergistic antibacterial activity against multi-drug resistant Escherichia coli clinical isolate 1 assessed as inhibition of bacterial growth in presence of polymyxin B by checkerboard assay; type: functional
Escherichia coli [22] = assay: Synergistic antibacterial activity against Escherichia coli CG-4 expressing MCR-1 and NDM-1 assessed as inhibition of bacterial growth in presence of polymyxin B by checkerboard assay; type: functional
Acinetobacter baumannii [23] = assay: Synergistic antibacterial activity against Acinetobacter baumannii ATCC 19606 assessed as fractional inhibitory concentration index in presence of polymyxin B by checkerboard assay; type: functional
Acinetobacter baumannii [24] = assay: Synergistic antibacterial activity against multi-drug resistant Acinetobacter baumannii clinical isolate 1 assessed as fractional inhibitory concentration index in presence of polymyxin B by checkerboard assay; type: functional
Acinetobacter baumannii [25] = assay: Synergistic antibacterial activity against multi-drug resistant Acinetobacter baumannii clinical isolate 43 assessed as fractional inhibitory concentration index in presence of polymyxin B by checkerboard assay; type: functional
Escherichia coli [26] = assay: Synergistic antibacterial activity against Escherichia coli ATCC 25922 assessed as fractional inhibitory concentration index in presence of polymyxin B by checkerboard assay; type: functional
Escherichia coli [27] = assay: Synergistic antibacterial activity against Escherichia coli ATCC 35218 assessed as fractional inhibitory concentration index in presence of polymyxin B by checkerboard assay; type: functional
Escherichia coli [28] = assay: Synergistic antibacterial activity against Escherichia coli CG-4 expressing MCR-1 and NDM-1 assessed as fractional inhibitory concentration index in presence of polymyxin B by checkerboard assay; type: functional
Acinetobacter baumannii [29] = assay: Synergistic antibacterial activity against Acinetobacter baumannii ATCC 19606 assessed as fractional inhibitory concentration index in presence of amikacin by checkerboard assay; type: functional
Acinetobacter baumannii [30] = assay: Synergistic antibacterial activity against Acinetobacter baumannii ATCC 19606 assessed as fractional inhibitory concentration index in presence of gentamycin by checkerboard assay; type: functional
Acinetobacter baumannii [31] = assay: Synergistic antibacterial activity against multi-drug resistant Acinetobacter baumannii clinical isolate 5 assessed as fractional inhibitory concentration index in presence of gentamycin by checkerboard assay; type: functional
Acinetobacter baumannii [32] = assay: Synergistic antibacterial activity against multi-drug resistant Acinetobacter baumannii clinical isolate 14 assessed as fractional inhibitory concentration index in presence of amikacin by checkerboard assay; type: functional
Acinetobacter baumannii [33] = assay: Synergistic antibacterial activity against multi-drug resistant Acinetobacter baumannii clinical isolate 14 assessed as fractional inhibitory concentration index in presence of gentamycin by checkerboard assay; type: functional
Acinetobacter baumannii [34] = assay: Synergistic antibacterial activity against multi-drug resistant Acinetobacter baumannii clinical isolate 1 assessed as fractional inhibitory concentration index in presence of gentamycin by checkerboard assay; type: functional
Acinetobacter baumannii [35] = assay: Synergistic antibacterial activity against multi-drug resistant Acinetobacter baumannii clinical isolate 43 assessed as fractional inhibitory concentration index in presence of amikacin by checkerboard assay; type: functional
Escherichia coli [36] = assay: Synergistic antibacterial activity against Escherichia coli ATCC 25922 assessed as fractional inhibitory concentration index in presence of gentamycin by checkerboard assay; type: functional
Escherichia coli [37] = assay: Synergistic antibacterial activity against Escherichia coli ATCC 35218 assessed as fractional inhibitory concentration index in presence of amikacin by checkerboard assay; type: functional
Escherichia coli [38] = assay: Synergistic antibacterial activity against multi-drug resistant Escherichia coli clinical isolate 1 assessed as fractional inhibitory concentration index in presence of amikacin by checkerboard assay; type: functional
Escherichia coli [39] = assay: Synergistic antibacterial activity against Escherichia coli CG-4 expressing MCR-1 and NDM-1 assessed as fractional inhibitory concentration index in presence of […] by checkerboard assay; type: functional
Escherichia coli [40] = assay: Synergistic antibacterial activity against Escherichia coli CG-4 expressing MCR-1 and NDM-1 assessed as fractional inhibitory concentration index in presence of gentamycin by checkerboard assay; type: functional
Klebsiella pneumoniae [41] = assay: Synergistic antibacterial activity against Klebsiella pneumoniae assessed as inhibition of bacterial growth in presence of polymyxin B by checkerboard assay; type: functional, organism-based
Klebsiella pneumoniae [42] = assay: Synergistic antibacterial activity against Klebsiella pneumoniae assessed as inhibition of bacterial growth in presence of aminoglycoside by checkerboard assay; type: functional, organism-based

`CC(C)(C)c1cc(/C=C/c2ccc(N3CCCC3)cc2)cc(C(C)(C)C)[o+]1.O=S(=O)([O-])C(F)(F)F` showed an MIC (Escherichia coli [1]) of 12.5 µg/mL, an MIC (Escherichia coli [2]) of 6.25 µg/mL and an MIC (Pseudomonas aeruginosa [3]) greater than 100 µg/mL. The MIC (Pseudomonas aeruginosa [4]) was greater than 100 µg/mL, the MIC (Acinetobacter baumannii [5]) was 6.25 µg/mL and the MIC (Acinetobacter baumannii [6]) was 6.25 µg/mL. For the same molecule, the MIC (Acinetobacter baumannii [7]) was 12.5 µg/mL, the MIC (Acinetobacter baumannii [8]) was 6.25 µg/mL and the MIC (Acinetobacter baumannii [9]) was 12.5 µg/mL. The MIC (Acinetobacter baumannii [10]) was 0.002 µg/mL, the MIC (Acinetobacter baumannii [11]) was 0.003 µg/mL and the MIC (Acinetobacter baumannii [12]) was 0.024 µg/mL. For the same molecule, the MIC (Acinetobacter baumannii [13]) was 1.56 µg/mL, the MIC (Acinetobacter baumannii [14]) was 1 10^-4 ug/ml and the MIC (Escherichia coli [15]) was 0.39 µg/mL. It also gave an MIC (Acinetobacter baumannii [16]) of 1.56 µg/mL, an MIC (Acinetobacter baumannii [17]) of 1.56 µg/mL and an MIC (Acinetobacter baumannii [18]) of 3.12 µg/mL. It also gave an MIC (Acinetobacter baumannii [19]) of 6.25 µg/mL, an MIC (Escherichia coli [20]) of 3.13 µg/mL and an MIC (Escherichia coli [21]) of 6.25 µg/mL. The MIC (Escherichia coli [22]) was 0.78 µg/mL, the “fractional inhibitory concentration index (FICI)” value (Acinetobacter baumannii [23]) was 0.156 and the “fractional inhibitory concentration index (FICI)” value (Acinetobacter baumannii [24]) was less than 0.266. For the same molecule, the “fractional inhibitory concentration index (FICI)” value (Acinetobacter baumannii [25]) was 0.5, the “fractional inhibitory concentration index (FICI)” value (Escherichia coli [26]) was 0.156 and the “fractional inhibitory concentration index (FICI)” value (Escherichia coli [27]) was 0.375. For the same molecule, the “fractional inhibitory concentration index (FICI)” value (Escherichia coli [28]) was 0.188, the “fractional inhibitory concentration index (FICI)” value (Acinetobacter baumannii [29]) was 0.125 and the “fractional inhibitory concentration index (FICI)” value (Acinetobacter baumannii [30]) was 0.125. The “fractional inhibitory concentration index (FICI)” value (Acinetobacter baumannii [31]) was 0.125, the “fractional inhibitory concentration index (FICI)” value (Acinetobacter baumannii [32]) was 0.125 and the “fractional inhibitory concentration index (FICI)” value (Acinetobacter baumannii [33]) was 0.125. The “fractional inhibitory concentration index (FICI)” value (Acinetobacter baumannii [34]) was 0.125, the “fractional inhibitory concentration index (FICI)” value (Acinetobacter baumannii [35]) was 0.125 and the “fractional inhibitory concentration index (FICI)” value (Escherichia coli [36]) was 0.125. For the same molecule, the “fractional inhibitory concentration index (FICI)” value (Escherichia coli [37]) was 0.125, the “fractional inhibitory concentration index (FICI)” value (Escherichia coli [38]) was 0.125 and the “fractional inhibitory concentration index (FICI)” value (Escherichia coli [39]) was 0.125. For the same molecule, the “fractional inhibitory concentration index (FICI)” value (Escherichia coli [40]) was 0.125, the Activity (Klebsiella pneumoniae [41]) was “inactive” and the Activity (Klebsiella pneumoniae [42]) was “inactive”.

In the case of `CCN(CC)c1ccc(/C=C/c2cc(C(C)(C)C)[o+]c(C(C)(C)C)c2)cc1.O=S(=O)([O-])C(F)(F)F`, the MIC (Escherichia coli [1]) is reported as 6.25 µg/mL, the MIC (Escherichia coli [2]) is reported as 6.25 µg/mL and the MIC (Pseudomonas aeruginosa [3]) is reported as greater than 100 µg/mL. For the same molecule, the MIC (Pseudomonas aeruginosa [4]) was greater than 100 µg/mL, the MIC (Acinetobacter baumannii [5]) was 12.5 µg/mL and the MIC (Acinetobacter baumannii [6]) was 6.25 µg/mL. The MIC (Acinetobacter baumannii [7]) was 12.5 µg/mL, the MIC (Acinetobacter baumannii [8]) was 12.5 µg/mL and the MIC (Acinetobacter baumannii [9]) was 25 µg/mL. The MIC (Acinetobacter baumannii [10]) was 0.006 µg/mL, the MIC (Acinetobacter baumannii [11]) was 0.003 µg/mL and the MIC (Acinetobacter baumannii [12]) was 0.006 µg/mL. The MIC (Acinetobacter baumannii [13]) was 0.2 µg/mL, the MIC (Acinetobacter baumannii [14]) was 1 10^-4 ug/ml and the MIC (Escherichia coli [15]) was 0.2 µg/mL. It also gave an MIC (Acinetobacter baumannii [16]) of 0.78 µg/mL, an MIC (Acinetobacter baumannii [17]) of 1.56 µg/mL and an MIC (Acinetobacter baumannii [18]) of 1.56 µg/mL. For the same molecule, the MIC (Acinetobacter baumannii [19]) was 6.25 µg/mL, the MIC (Escherichia coli [20]) was 1.56 µg/mL and the MIC (Escherichia coli [21]) was 3.12 µg/mL. The MIC (Escherichia coli [22]) was 3.13 µg/mL, the “fractional inhibitory concentration index (FICI)” value (Acinetobacter baumannii [23]) was 0.188 and the “fractional inhibitory concentration index (FICI)” value (Acinetobacter baumannii [24]) was less than 0.064. For the same molecule, the “fractional inhibitory concentration index (FICI)” value (Acinetobacter baumannii [25]) was 0.5, the “fractional inhibitory concentration index (FICI)” value (Escherichia coli [26]) was 0.266 and the “fractional inhibitory concentration index (FICI)” value (Escherichia coli [27]) was 0.375. The “fractional inhibitory concentration index (FICI)” value (Escherichia coli [28]) was 0.375, the “fractional inhibitory concentration index (FICI)” value (Acinetobacter baumannii [29]) was 0.125 and the “fractional inhibitory concentration index (FICI)” value (Acinetobacter baumannii [30]) was 0.125. For the same molecule, the “fractional inhibitory concentration index (FICI)” value (Acinetobacter baumannii [31]) was 0.125, the “fractional inhibitory concentration index (FICI)” value (Acinetobacter baumannii [32]) was 0.125 and the “fractional inhibitory concentration index (FICI)” value (Acinetobacter baumannii [33]) was 0.125. For the same molecule, the “fractional inhibitory concentration index (FICI)” value (Acinetobacter baumannii [34]) was 0.125, the “fractional inhibitory concentration index (FICI)” value (Acinetobacter baumannii [35]) was 0.125 and the “fractional inhibitory concentration index (FICI)” value (Escherichia coli [36]) was 0.125. The “fractional inhibitory concentration index (FICI)” value (Escherichia coli [37]) was 0.125, the “fractional inhibitory concentration index (FICI)” value (Escherichia coli [38]) was 0.125 and the “fractional inhibitory concentration index (FICI)” value (Escherichia coli [39]) was 0.125. The “fractional inhibitory concentration index (FICI)” value (Escherichia coli [40]) was 0.125, the Activity (Klebsiella pneumoniae [41]) was “inactive” and the Activity (Klebsiella pneumoniae [42]) was “inactive”.
